Data published in patent US20230172923A1, “METHODS OF TREATING CYTOKINE-RELATED ADVERSE EVENTS” (BRISTOL-MYERS SQUIBB COMPANY, priority 2020, published 2023).
“Also recorded” adds a separate entry of the source.

Tests used:
Assay type in all cases: cell-based, human
IL-8 = assay: LPS-stimulated PBMC cytokine production, multiplex cytokine analysis: IL-8; conditions: Homo sapiens; PBMC 2×10^6 cells/ml, compound 1 hour, then 1 ng/ml LPS 18 hours
Description: Peripheral blood mononuclear cells (PBMCs) were isolated from the blood of healthy human donors by Ficoll cell separation. The PBMCs were seeded at a concentration of 2×10^6 cells/ml and treated for 1 hour at 37° C. with various concentrations of IMiD compounds or control DMSO (0.25%), before stimulation with 1 ng/ml LPS for 18 hours at 37° C.
Supernatant samples were subjected to multiplex cytokine analysis (Luminex IS100 instrument) to quantify secreted levels of IL-6, IL-8, IL1-beta (IL-1β), GM-CSF, MDC, MIP-1alpha (MIP-1α), MIP-1beta (MIP-1β) and TNF-alpha (TNF-α) (see e.g. FIGS. 7A-C).
IC50 (half maximal inhibitory concentration) values were calculated to measure the potency of each IMiD compound in inhibiting LPS-stimulated secretion of each cytokine (see Table 25).

IL-1β = assay: LPS-stimulated PBMC cytokine production, multiplex cytokine analysis: IL-1β; conditions: Homo sapiens, PBMC, PBMC 2×10^6 cells/ml, compound 1 hour, then 1 ng/ml LPS 18 hours
Description: Peripheral blood mononuclear cells (PBMCs) were isolated from the blood of healthy human donors by Ficoll cell separation. […] Supernatant samples were subjected to multiplex cytokine analysis (Luminex IS100 instrument) to quantify secreted levels of IL-6, IL-8, IL1-beta (IL-1β), GM-CSF, MDC, MIP-1alpha (MIP-1α), MIP-1beta (MIP-1β) and TNF-alpha (TNF-α) (see e.g. FIGS. 7A-C). IC50 (half maximal inhibitory concentration) values were calculated to measure the potency of each IMiD compound in inhibiting LPS-stimulated secretion of each cytokine (see Table 25).

IL-6 [1] = assay: LPS-induced IL-6 secretion from PBMCs, overnight pre-treatment (MSD); conditions: overnight 1000 nM lenalidomide, 100 nM pomalidomide, 10 nM iberdomide or 1 nM Compound 1; LPS 24 hours
Description: Fresh PBMCs isolated from healthy volunteers were seeded at a concentration of 1×10^6 cells/ml and treated with the indicated concentration of IMiD drugs/CELMoD agents or DMSO overnight before stimulation with the indicated concentration of LPS. After 24 hours, the cell culture media was collected and IL-6, TNF-alpha and IL1-beta levels in the supernatant were assessed using an MSD assay. ULOQ = Upper limit of quantification.
Fresh peripheral blood mononuclear cells (PBMCs) were isolated from the blood (buffy coat) of healthy human volunteers by Ficoll based cell separation. The isolated PBMCs were seeded at a concentration of 1×10^6 cells/ml and treated with 1000 nM lenalidomide, 100 nM pomalidomide, 10 nM iberdomide, 1 nM Compound 1 (CC-92480) or control DMSO, overnight (~17 hours). The next morning, the PBMCs were stimulated with various concentrations of LPS (Lipopolysaccharides from Escherichia coli O111:B4).
After 24 hours, the cell culture media was collected from the control and stimulated cells, spun down at 300 g for 5 minutes to remove cells and the supernatant was subjected to cytokine analysis to quantify secreted levels of IL-6, TNF-alpha (TNF-α) and IL1-beta (IL-1β) using an MSD assay (see e.g. FIGS. 8A-C).

IL-6 [2] = assay: CC-93269-induced IL-6 secretion, co-culture of PBMCs and K562-BCMA cells (MSD); conditions: 24 hours; for secretion of IL-6 associated with CC-93269 activity, PBMCs + K562-BCMA: pre-treatment 1000 nM lenalidomide, 100 nM pomalidomide, 10 nM iberdomide or 1 nM Compound 1, T-cells to target cells 5:1
Description: (§1) Fresh PBMCs were isolated from healthy volunteers, the percentage of CD3+ T-cells (total) was quantified by flow cytometry, and the PBMCs were treated with 1 nM Compound 1 (CC-92480) or control DMSO overnight. The next morning, target cells (K562-BCMA, which overexpress surface BCMA at a very high level) or control cells (K562-MCB, no BCMA expression) were added to the wells at a ratio of 5:1, T-cells to target cells, followed by addition of CC-93269 at the indicated concentrations. At 6-, 24- and 48-hours post-incubation, the cell culture media was collected and levels of IL-6 in the supernatant were assessed using an MSD assay.
The circles indicate independent donors and the bars indicate median values; not all donors are shown because a data cut-off for the bottom ~10% of IL-6 concentrations, below 200 pg/ml, was used to eliminate small changes that could skew the result and to increase confidence in results.
as §1, with “the indicated concentrations of IMiD/CELMoD agents” for “1 nM Compound 1 (CC-92480)”, “level)” for “level) or control cells (K562-MCB, no BCMA expression)”, “24 hours” for “6-, 24- and 48-hours”
Fresh PBMCs were isolated from the blood (buffy coat) of healthy human volunteers by Ficoll based cell separation. The percentage of CD3+ T-cells (total) in the PBMCs was quantified by flow cytometry. The isolated PBMCs were seeded in 12-well plates at a concentration of 1.5×10^6 cells/ml and treated with 1 nM Compound 1 (CC-92480), 1000 nM lenalidomide, 100 nM pomalidomide, 10 nM iberdomide, or control DMSO overnight (~17 hours).
After overnight incubation, target K562-BCMA cells (overexpress surface BCMA at a very high level) or control K562-MCB cells (no BCMA expression) were added to the wells at a ratio of 5:1, T-cells to target cells. K562-BCMA and K562-MCB are an isogenic pair that are derived from a chronic myelogenous leukemia (CML,) cell line. CC-93269 was added to the co-culture at various concentrations and incubated. CC-93269 is an anti-BCMA anti-CD3 bispecific T cell-engaging antibody and is also referred to herein as 42-TCBcv.
At 6, 24 and 48 hours post-incubation, the cell culture media was collected from all samples, spun down at 300 g for 5 minutes to remove cells and the supernatant was subjected to cytokine analysis to quantify secreted levels of IL-6 using an MSD assay.

Nc1cccc2c1CN(C1CCC(=O)NC1=O)C2=O (stereo not shown) [Lenalidomide, 3-(4-amino-1-oxo-2,3-dihydro-1H-isoindol-2-yl) piperidine-2,6-dione]
IC50 (IL-8): > 10 µM | IC50 (IL-1β): 0.39 µM | LPS-induced secretion of IL-6 from PBMCs (IL-6 [1]): reduces | secretion of IL-6 associated with CC-93269 activity, PBMCs + K562-BCMA (IL-6 [2]): diminished/attenuated; also recorded: suppressed

Nc1cccc2c1C(=O)N(C1CCC(=O)NC1=O)C2=O (stereo not shown) [Pomalidomide, 4-amino-2-(2,6-dioxopiperidine-3-yl)isoindoline-1,3-dione]
IC50 (IL-8): 2.9 µM | IC50 (IL-1β): 0.047 µM | LPS-induced secretion of IL-6 from PBMCs (IL-6 [1]): reduces | secretion of IL-6 associated with CC-93269 activity, PBMCs + K562-BCMA (IL-6 [2]): diminished/attenuated; also recorded: suppressed

O=C1CC[C@H](N2Cc3c(OCc4ccc(CN5CCOCC5)cc4)cccc3C2=O)C(=O)N1 [Iberdomide, (S)-3-(4-((4-(morpholinomethyl)benzyl)oxy)-1-oxoisoindolin-2-yl)piperidine-2,6-dione]
IC50 (IL-8): > 10 µM | IC50 (IL-1β): 0.00046 µM | LPS-induced secretion of IL-6 from PBMCs (IL-6 [1]): reduces | secretion of IL-6 associated with CC-93269 activity, PBMCs + K562-BCMA (IL-6 [2]): diminished/attenuated; also recorded: suppressed

N#Cc1ccc(N2CCN(Cc3ccc(COc4cccc5c4CN(C4CCC(=O)NC4=O)C5=O)cc3)CC2)c(F)c1 (stereo not drawn) [Compound 1, 4-(4-(4-(((2-(2,6-dioxopiperidin-3-yl)-1-oxoisoindolin-4-yl)oxy)methyl)benzyl)piperazin-l-yl)-3-fluorobenzonitrile]
LPS-induced secretion of IL-6 from PBMCs (IL-6 [1]): reduces | median reduction in IL-6 levels relative to DMSO control (IL-6 [2]; 1 nM Compound 1 pre-treatment, 10 ng/ml CC-93269, PBMCs from 15 healthy donors): about two-fold | IL-6 secretion at CC-93269 concentrations up to 10,000 ng/mL, PBMCs + K562-BCMA (IL-6 [2]; Compound 1 pre-treatment): suppresses | secretion of IL-6 associated with CC-93269 activity, PBMCs + K562-BCMA (IL-6 [2]): diminished/attenuated; also recorded: suppressed
